{
  "source": "patent US7101896B2",
  "about": "“Pharmaceutical compositions and methods for use” (Targacept, Inc., priority 1999, dated 2006)",
  "data": [
    {"biological_target": "CNS nicotinic receptors (Rattus norvegicus, UniProt P09483+P12390)", "sequence (P09483 31-630)": "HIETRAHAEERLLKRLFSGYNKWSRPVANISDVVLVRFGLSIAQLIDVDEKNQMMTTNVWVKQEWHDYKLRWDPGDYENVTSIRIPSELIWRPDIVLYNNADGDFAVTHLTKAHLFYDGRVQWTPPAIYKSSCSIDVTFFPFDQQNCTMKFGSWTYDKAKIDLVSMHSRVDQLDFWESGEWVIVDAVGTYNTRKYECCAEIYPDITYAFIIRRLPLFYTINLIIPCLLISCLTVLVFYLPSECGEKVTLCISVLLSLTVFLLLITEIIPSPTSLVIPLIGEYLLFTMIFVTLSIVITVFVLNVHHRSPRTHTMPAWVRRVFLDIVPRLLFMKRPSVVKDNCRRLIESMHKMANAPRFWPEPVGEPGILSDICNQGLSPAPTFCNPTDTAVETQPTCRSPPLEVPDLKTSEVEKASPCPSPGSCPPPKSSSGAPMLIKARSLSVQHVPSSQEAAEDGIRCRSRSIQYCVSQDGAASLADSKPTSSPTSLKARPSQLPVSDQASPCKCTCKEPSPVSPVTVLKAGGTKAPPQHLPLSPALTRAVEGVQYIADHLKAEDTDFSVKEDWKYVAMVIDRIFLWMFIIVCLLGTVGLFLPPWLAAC", "sequence (P12390 25-500)": "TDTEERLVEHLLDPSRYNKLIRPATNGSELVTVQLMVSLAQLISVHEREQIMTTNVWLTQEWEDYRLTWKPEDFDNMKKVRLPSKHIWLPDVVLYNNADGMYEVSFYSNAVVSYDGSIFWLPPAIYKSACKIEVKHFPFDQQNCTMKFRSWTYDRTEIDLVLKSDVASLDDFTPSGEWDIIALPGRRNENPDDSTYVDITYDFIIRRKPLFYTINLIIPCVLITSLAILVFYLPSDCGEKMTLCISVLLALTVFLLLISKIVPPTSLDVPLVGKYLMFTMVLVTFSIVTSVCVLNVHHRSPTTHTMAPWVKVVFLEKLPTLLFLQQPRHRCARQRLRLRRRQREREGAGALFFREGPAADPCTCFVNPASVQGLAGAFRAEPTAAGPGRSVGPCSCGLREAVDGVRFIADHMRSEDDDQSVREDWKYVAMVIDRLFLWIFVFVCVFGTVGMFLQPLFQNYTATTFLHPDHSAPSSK", "test": "Determination of binding to relevant receptor sites", "conditions": "calculated from the IC50 values using the method of Cheng et al.; techniques of U.S. Pat. No. 5,597,919; read-out: Ki (inhibition constant, receptor binding)", "units": {"Ki": "nM"}, "values": [
      {"molecule": "(S)-3-isopropoxy-5-(pyrrolidin-2-ylethynyl)pyridine hemigalactarate [Sample No. 7]", "Ki": 2},
      {"molecule": "(S)-3-(pyrrolidin-2-ylethynyl)-5-(tetrahydropyran-4-yloxy)pyridine hemigalactarate [Sample No. 16]", "Ki": 7},
      {"molecule": "(S)-(E)-3(2-pyrrolidin-2-ylvinyl)pyridine hemigalactarate [Sample No. 2]", "Ki": 306},
      {"molecule": "(S)-3-(4-methoxyphenoxy)-5-(pyrrolidin-2-ylethynyl)pyridine hemigalactarate [Sample No. 10]", "Ki": 33},
      {"molecule": "(S)-3-(3-pyridyloxy)-5-(pyrrolidin-2-ylethynyl)pyridine hemigalactarate [Sample No. 15]", "Ki": 13},
      {"molecule": "(S)-3-(phenoxyphenyl)-5-(pyrrolidin-2-ylethynyl)pyridine hemigalactarate [Sample No. 9]", "Ki": 530},
      {"molecule": "(E,S)-3-cyclopentyloxy-5-(pyrrolidin-2-ylvinyl)pyridine hemigalactarate [Sample No. 19]", "Ki": 51}
    ]},
    {"biological_target": "CNS nicotinic receptors (Rattus norvegicus, UniProt P09483+P12390)", "test": "Determination of binding to relevant receptor sites", "conditions": "read-out: Ki (inhibition constant, receptor binding)", "units": {"Ki": "nM"}, "values": [
      {"molecule": "Oc1ccc(Oc2cncc(C#C[C@@H]3CCCN3)c2)cc1", "note": "[Sample No. 11, (S)-3-(4-hydroxyphenoxy)-5-(pyrrolidin-2-ylethynyl)pyridine]", "Ki": 2}
    ]}
  ]
}
